The results in this text go back to patent US9120756B2, “Substituted phenylureas and phenylamides as vanilloid receptor ligands” (Gruenenthal GmbH, priority 2009, dated 2015).

hVR1, sequence (Q8NER1 whole entry): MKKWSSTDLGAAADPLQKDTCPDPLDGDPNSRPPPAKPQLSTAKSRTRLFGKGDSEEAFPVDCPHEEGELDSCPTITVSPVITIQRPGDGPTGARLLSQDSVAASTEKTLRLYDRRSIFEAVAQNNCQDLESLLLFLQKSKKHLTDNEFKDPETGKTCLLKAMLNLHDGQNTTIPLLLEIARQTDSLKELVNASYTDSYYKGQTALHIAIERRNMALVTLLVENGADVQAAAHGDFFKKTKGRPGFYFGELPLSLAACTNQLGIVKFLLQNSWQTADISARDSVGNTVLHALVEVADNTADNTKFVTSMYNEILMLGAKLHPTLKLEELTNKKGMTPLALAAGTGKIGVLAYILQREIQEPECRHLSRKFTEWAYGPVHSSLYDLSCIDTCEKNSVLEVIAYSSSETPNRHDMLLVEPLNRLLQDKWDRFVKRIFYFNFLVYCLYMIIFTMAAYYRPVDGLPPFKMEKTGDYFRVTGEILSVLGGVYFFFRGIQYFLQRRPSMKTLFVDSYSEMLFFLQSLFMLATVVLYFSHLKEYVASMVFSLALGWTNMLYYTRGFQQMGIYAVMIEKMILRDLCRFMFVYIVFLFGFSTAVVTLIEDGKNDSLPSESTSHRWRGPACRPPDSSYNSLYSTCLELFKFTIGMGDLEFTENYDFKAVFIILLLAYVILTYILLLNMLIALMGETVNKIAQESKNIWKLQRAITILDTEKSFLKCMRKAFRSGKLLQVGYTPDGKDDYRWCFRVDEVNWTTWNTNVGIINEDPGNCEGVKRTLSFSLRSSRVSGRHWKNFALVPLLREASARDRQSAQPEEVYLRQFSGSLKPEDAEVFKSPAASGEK

The target in the first experiment is hVR1 (Homo sapiens (Human), UniProt Q8NER1). Nature of the experiment: FLIPR Ca2+ influx assay on CHO K1 cells transfected with the VR1 gene, capsaicin stimulus (method II). The arrangement: key to Ki (human being) Cap: result in words (NE / AG): AG=agonist; pAG=partial agonist; NE=no effect. The format is cell-based. Conditions: CHO-K1, read-out: Ki (human being) Cap column: inhibition (as a percentage) @ 5 μM, capsaicin, inhibition determined at 5 μM. From the text:
In the process, the Ca^2+ influx is quantified in the FLIPR assay with the aid of a Ca^2+-sensitive dye (type Fluo-4, Molecular Probes Europe BV, Leiden, the Netherlands) in a fluorescent imaging plate reader (FLIPR, Molecular Devices, Sunnyvale, USA), as described hereinafter.
The agonistic or antagonistic effect of the substances to be tested on the vanilloid receptor 1 (VR1) can also be determined using the following assay. In this assay, the influx of Ca^2+ through the channel is quantified with the aid of a Ca^2+-sensitive dye (type Fluo-4, Molecular Probes Europe BV, Leiden, the Netherlands) in a fluorescent imaging plate reader (FLIPR, Molecular Devices, Sunnyvale, USA).
Chinese hamster ovary cells (CHO K1 cells, European Collection of Cell Cultures (ECACC) United Kingdom) are stably transfected with the VR1 gene. For functional testing, these cells are plated out on poly-D-lysine-coated black 96-well plates having a clear base (BD Biosciences, Heidelberg, Germany) at a density of 25,000 cells/well. The cells are incubated overnight at 37° C. and 5% CO2 in a culture medium (Ham's F12 nutrient mixture, 10% by volume of FCS (foetal calf serum), 18 μg/ml of L-proline). The next day the cells are incubated with Fluo-4 (Fluo-4 2 μM, 0.01% by volume of Pluronic F127, Molecular Probes in HBSS (Hank's buffered saline solution), Gibco Invitrogen GmbH, Karlsruhe, Germany) for 30 minutes at 37° C. Subsequently, the plates are washed three times with HBSS buffer and after further incubation for 15 minutes at RT used for Ca^2+ measurement in a FLIPR assay. The Ca^2+-dependent fluorescence is measured before and after the addition of the substances to be tested (λex wavelength=488 nm, λem=540 nm). Quantification is carried out by measuring the highest fluorescence intensity (FC, fluorescence counts) over time.
The FLIPR protocol consists of 2 substance additions. First the compounds to be tested (10 μM) are pipetted onto the cells and the Ca^2+ influx is compared with the control (capsaicin 10 μM) (% activation based on the Ca^2+ signal after the addition of 10 μM of capsaicin). After 5 minutes' incubation, 100 nM of capsaicin are applied and the Ca^2+ influx is also determined.
Desensitising agonists and antagonists led to suppression of the Ca^2+ influx.
Starting from the percentage displacement caused by different concentrations of the compounds to be tested of general formula I, IC50 inhibitory concentrations which cause a 50-percent displacement of capsaicin were calculated. Ki values for the test substances were obtained by conversion by means of the Cheng-Prusoff equation (Cheng, Prusoff; Biochem. Pharmacol. 22, 3099-3108, 1973).
On to `CCCCCn1nc(C(F)(F)F)cc1CNC(=O)Cc1cccc(F)c1` [Example 131, 2-(3-fluorophenyl)-N-((1-pentyl-3-(trifluoromethyl)-1H-pyrazol-5-yl)methyl)acetamide], for which the inhibition (commonly the drop in the measured response relative to a control, in per cent) at 5 µM was 58%.
`CN(C(=O)NCc1cc(C(F)(F)F)nn1-c1cccc(Cl)c1)c1cccc(F)c1` [Example 123, 3-((1-(3-chlorophenyl)-3-(trifluoromethyl)-1H-pyrazol-5-yl)methyl)-1-(3-fluorophenyl)-1-methylurea]: the inhibition at 5 µM turned out to be 44%.
Same read-out and setting: in the case of `CC(C)(C)c1cc(CNC(=O)Cc2cccc(F)c2)n(NCC(F)(F)F)n1` [Example 133, N-((3-tert-butyl-1-(2,2,2-trifluoroethylamino)-1H-pyrazol-5-yl)methyl)-2-(3-fluorophenyl)acetamide] it was 12%.

The same experiment, now with this note: CHO-K1, read-out: Ki (human being) inhibition (as a percentage) @ 1 μM, capsaicin, inhibition determined at 1 μM.
Take `CC(C(=O)NCc1cc(C(F)(F)F)nn1-c1cccc(Cl)c1)c1ccc(C(=O)Nc2ccccc2)cc1` (centres unmarked) [Example 143, 4-(1-((1-(3-chlorophenyl)-3-(trifluoromethyl)-1H-pyrazol-5-yl)methylamino)-1-oxopropan-2-yl)-N-phenylbenzamide]: the inhibition at 1 µM stood at 56%.

The experiment is the same for the next values; noted with them: capsaicin.
As for `CC(C)(C)c1cc(CNC(=O)Cc2cccc(F)c2)n(-c2cccc(Cl)c2)n1` [Example 73, N-((3-tert-butyl-1-(3-chlorophenyl)-1H-pyrazol-5-yl)methyl)-2-(3-fluorophenyl)acetamide], the “Ki (human being) Cap: result in words (NE / AG)” value (“Ki (human being) Cap … (NE / AG)” below) is given as “AG”.
On to `COc1c(F)cc(NC(=O)NCc2cc(C(C)(C)C)nn2-c2cccc(Cl)c2)cc1F` [Example 61, 1-((3-tert-butyl-1-(3-chlorophenyl)-1H-pyrazol-5-yl)methyl)-3-(3,5-difluoro-4-methoxyphenyl)urea], for which the “Ki (human being) Cap … (NE / AG)” value is on record as “AG”.
Still for that read-out and setting: in the case of `CC(C(=O)NCc1cc(C(C)(C)C)nn1-c1cccc(Cl)c1)c1ccc(C2CC2)c(F)c1` (centres unmarked) [Example 125, N-((3-tert-butyl-1-(3-chlorophenyl)-1H-pyrazol-5-yl)methyl)-2-(4-cyclopropyl-3-fluorophenyl)propanamide] it was “AG”; in that of `CC(C)(C)c1cc(CNC(=O)C2(c3cccc(F)c3)CC2)n(-c2cccc(Cl)c2)n1` [Example 118, N-((3-tert-butyl-1-(3-chlorophenyl)-1H-pyrazol-5-yl)methyl)-1-(3-fluorophenyl)cyclopropancarboxamide], “AG”; in that of `O=C(NCc1cc(C(F)(F)F)nn1-c1cccc(Cl)c1)Nc1ccc(C#CC2CC2)c(F)c1` [Example 139, 1-((1-(3-chlorophenyl)-3-(trifluoromethyl)-1H-pyrazol-5-yl)methyl)-3-(4-(cyclopropylethynyl)-3-fluorophenyl)urea], “AG”.
Consider `COCCOCc1ccc(C(C)C(=O)NCc2cc(C(C)(C)C)nn2-c2cccc(Cl)c2)cc1F` (centres unmarked) [Example 142, N-((3-tert-butyl-1-(3-chlorophenyl)-1H-pyrazol-5-yl)methyl)-2-(3-fluoro-4-((2-methoxyethoxy)methyl)phenyl)propanamide], for which the “Ki (human being) Cap … (NE / AG)” value is “AG”.
As for `CC(C)(C)c1cc(CNC(=O)Nc2cccc(F)c2)n(-c2ccc(F)cc2)n1` [Example 122, 1-((3-tert-butyl-1-(4-fluorophenyl)-1H-pyrazol-5-yl)methyl)-3-(3-fluorophenyl)urea], the “Ki (human being) Cap … (NE / AG)” value is reported as “AG”.
On to `CC(C)(C)c1cc(CNC(=O)Nc2ccc(N3CCOCC3)c(F)c2)n(-c2cccc(Cl)c2)n1` [Example 144, 1-((3-tert-butyl-1-(3-chlorophenyl)-1H-pyrazol-5-yl)methyl)-3-(3-fluoro-4-morpholinphenyl)urea], for which the “Ki (human being) Cap … (NE / AG)” value is recorded as “AG”.

Staying with this experiment, now noted: capsaicin (Cap), read-out: Ki (human being) [nM] Cap.
Take `CC(C)(C(=O)NCc1cc(C(F)(F)F)nn1-c1cccc(Cl)c1)c1cccc(F)c1` [Example 117, N-((1-(3-chlorophenyl)-3-(trifluoromethyl)-1H-pyrazol-5-yl)methyl)-2-(3-fluorophenyl)-2-methylpropanamide]: the Ki (as a rule, a measure of affinity in units of concentration, obtained from inhibition or displacement) came out at 56 nM.
For the molecule `COc1c(F)cc(C(C)C(=O)NCc2cc(C(F)(F)F)nn2-c2cccc(Cl)c2)cc1F` (centres unmarked) [Example 47, N-((1-(3-chlorophenyl)-3-(trifluoromethyl)-1H-pyrazol-5-yl)methyl)-2-(3,5-difluoro-4-methoxyphenyl)propanamide], the Ki was 17 nM.
Take `Cc1c(C(F)(F)F)nn(-c2cccc(Cl)c2)c1CNC(=O)Cc1cccc(F)c1` [Example 130, N-((1-(3-chlorophenyl)-4-methyl-3-(trifluoromethyl)-1H-pyrazol-5-yl)methyl)-2-(3-fluorophenyl)acetamide]: the Ki amounted to 112 nM.
In the case of `O=C(Cc1cc(F)c(O)c(F)c1)NCc1cc(C(F)(F)F)nn1-c1cccc(Cl)c1` [Example 147, N-((1-(3-chlorophenyl)-3-(trifluoromethyl)-1H-pyrazol-5-yl)methyl)-2-(3,5-difluoro-4-hydroxyphenyl)acetamide], the Ki was determined as 26 nM.
On the same count and under the same terms, the figure for `O=C(NCc1cc(C(F)(F)F)nn1-c1cccc(Cl)c1)C1(c2cccc(F)c2)CCC1` [Example 119, N-((1-(3-chlorophenyl)-3-(trifluoromethyl)-1H-pyrazol-5-yl)methyl)-1-(3-fluorophenyl)cyclobutancarboxamide] is 107 nM; for `CC(C(=O)NCc1cc(C(C)(C)C)nn1-c1cccc(Cl)c1)c1ccc(CNS(C)(=O)=O)c(F)c1` (centres unmarked) [Example 33, N-((3-tert-butyl-1-(3-chlorophenyl)-1H-pyrazol-5-yl)methyl)-2-(3-fluoro-4-(methylsulphonamidomethyl)phenyl)propanamide] it is 4 nM.
On the same count and under the same terms, the figure for `CC(C(=O)NCc1cc(C(C)(C)C)nn1-c1ccccn1)c1ccc(CNS(C)(=O)=O)c(F)c1` (centres unmarked) [Example 127, N-((3-tert-butyl-1-(pyridin-2-yl)-1H-pyrazol-5-yl)methyl)-2-(3-fluoro-4-(methylsulfonamidmethyl)phenyl)propanamide] is 58.1 nM; for `CC(C(=O)NCc1cc(C(F)(F)F)nn1-c1cccc(Cl)c1)c1ccc(C(=O)Nc2ccc(F)cc2)cc1` (centres unmarked) [Example 40, 4-(1-((1-(3-chlorophenyl)-3-(trifluoromethyl)-1H-pyrazol-5-yl)methylamino)-1-oxopropan-2-yl)-N-(4-fluorophenyl)benzamide] it is 0.8 nM.
Consider `O=C(NCc1cc(C(F)(F)F)nn1-c1cccc(Cl)c1)Nc1ccc(C2CC2)c(F)c1` [Example 126, 1-((1-(3-chlorophenyl)-3-(trifluoromethyl)-1H-pyrazol-5-yl)methyl)-3-(4-cyclopropyl-3-fluorophenyl)urea], for which the Ki was 31.4 nM.
On the same count and under the same terms, the figure for `Cc1c(C(F)(F)F)nn(-c2cccc(Cl)c2)c1CNC(=O)C(C)c1ccc(CNS(C)(=O)=O)c(F)c1` (centres unmarked) [Example 134, N-((1-(3-chlorophenyl)-4-methyl-3-(trifluoromethyl)-1H-pyrazol-5-yl)methyl)-2-(3-fluoro-4-(methylsulfonamidmethyl)phenyl)propanamide] is 2.5 nM; for “N-((1-(3-chlorophenyl)-3-cyclopropyl-1H-pyrazol-5-yl)methyl)-2-(3-fluoro-4-(methylsulfonylmethyl)phenyl)propanamide [Example 128]” it is 16.3 nM.
The same measure, in the same setting: in the case of `CC(C(=O)NCc1cc(C(F)(F)F)nn1C1CCCCC1)c1ccc(CNS(C)(=O)=O)c(F)c1` (centres unmarked) [Example 137, N-((1-cyclohexyl-3-(trifluoromethyl)-1H-pyrazol-5-yl)methyl)-2-(3-fluoro-4-(methylsulfonamidmethyl)phenyl)propanamide] it was 65.1 nM; in that of `CC(C(=O)NCc1cc(C(F)(F)F)nn1-c1cccc(Cl)c1)c1ccc(C(=O)Nc2ccccc2)c(F)c1` (centres unmarked) [Example 39, 4-(1-((1-(3-chlorophenyl)-3-(trifluoromethyl)-1H-pyrazol-5-yl)methylamino)-1-oxopropan-2-yl)-2-fluoro-N-phenylbenzamide], 7.2 nM; in that of `CC(C(=O)NCc1cc(C(F)(F)F)nn1NCc1ccccn1)c1ccc(CNS(C)(=O)=O)c(F)c1` (centres unmarked) [Example 129, 2-(3-fluoro-4-(methylsulfonamidmethyl)phenyl)-N-((1-(pyridin-2-ylmethylamino)-3-(trifluoromethyl)-1H-pyrazol-5-yl)methyl)propanamide], 63.6 nM.
